{"source": "patent US9133142B2", "about": "“Salts or co-crystals of 3-(3-dimethylamino-1-ethyl-2-methyl-propyl)-phenol” (Gruenenthal GmbH, priority 2010, dated 2015)", "key": {"[1]": {"test": "Thermogravimetric analysis (TGA) of salts or cocrystals", "format": "physicochemical", "settings": "for TGA no weight loss up to: nitrogen flow, heating rate of 10° C./min", "description": "Thermogravimetric investigations were performed with a Mettler-Toledo TGA/SDTA851.\nUnless otherwise specified, the samples were weighed in a aluminium crucible and measured in nitrogen flow. Generally TGA investigations were performed in a temperature range of 25 to about 200° C. or resp. 350° C. with a heating rate of 10° C./min."}, "[2]": {"settings": "cited from earlier work"}, "[3]": {"target": "recombinantly produced μ-opioid receptor (Homo sapiens, UniProt P35372)", "sequence (P35372 whole entry)": "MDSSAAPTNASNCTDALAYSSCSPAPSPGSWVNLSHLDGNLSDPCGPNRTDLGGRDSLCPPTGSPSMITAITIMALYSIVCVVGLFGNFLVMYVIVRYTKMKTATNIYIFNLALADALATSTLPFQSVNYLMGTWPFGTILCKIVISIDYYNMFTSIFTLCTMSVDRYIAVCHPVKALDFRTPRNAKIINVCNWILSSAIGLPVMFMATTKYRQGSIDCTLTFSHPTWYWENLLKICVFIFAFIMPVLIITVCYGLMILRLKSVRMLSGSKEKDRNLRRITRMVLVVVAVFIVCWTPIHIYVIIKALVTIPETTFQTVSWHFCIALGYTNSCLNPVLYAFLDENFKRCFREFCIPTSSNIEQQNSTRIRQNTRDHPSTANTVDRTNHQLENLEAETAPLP", "settings": "relative to morphine; cited from earlier work"}, "[4]": {"settings": "clinical studies; cited from earlier work"}}, "note": "Where a name gives a salt, the structure may show the parent alone.", "data": [{"compound": "CC[C@@H](c1cccc(O)c1)[C@@H](C)CN(C)C.CC[C@@H](c1cccc(O)c1)[C@@H](C)CN(C)C.O=C(O[C@H](C(=O)O)[C@H](OC(=O)c1ccccc1)C(=O)O)c1ccccc1", "note": "[Example A-1, Hemi Salt or Hemi Cocrystal of (2S,3S)-Di-benzoyl Tartaric Acid and Tapentadol]", "values": [{"measurement": "TGA no weight loss up to", "setting": "[1]", "result": "to 140 °C"}, {"measurement": "TGA no weight loss up to", "setting": "[1]; listed as A-2", "result": "to 160 °C"}, {"measurement": "TGA no weight loss up to", "setting": "[1]; listed as A-3", "result": "to 160 °C"}]}, {"compound": "CC[C@@H](c1cccc(O)c1)[C@@H](C)CN(C)C.O=C(O)CCCCCCCCC(=O)O", "note": "[Example B-1, Salt or Cocrystal of Sebacid Acid and Tapentadol]", "values": [{"measurement": "TGA no weight loss up to", "setting": "[1]", "result": "to 140 °C"}, {"measurement": "TGA no weight loss up to", "setting": "[1]; listed as B-2", "result": "to 105 °C"}, {"measurement": "TGA no weight loss up to", "setting": "[1]; listed as B-3", "result": "to 145 °C"}]}, {"compound": "CC[C@@H](c1cccc(O)c1)[C@@H](C)CN(C)C.O=C(O)c1ccc2ccccc2c1O", "note": "[Example C-1, Salt or Cocrystal of 1-hydroxy-2-naphthoic Acid and Tapentadol]", "values": [{"measurement": "TGA no weight loss up to", "setting": "[1]", "result": "to 125 °C"}, {"measurement": "TGA no weight loss up to", "setting": "[1]; listed as C-2", "result": "to 130 °C"}]}, {"compound": "CCC(c1cccc(O)c1)C(C)CN(C)C.O=C(O)CC(=O)O", "note": "(centres unmarked) [Example E-1, Salt or Cocrystal of Malonic Acid and Tapentadol]", "values": [{"measurement": "TGA no weight loss up to", "setting": "[1]", "result": "to 115 °C"}]}, {"compound": "CC[C@@H](c1cccc(O)c1)[C@@H](C)CN(C)C", "note": "[Example F-1, Salt or Cocrystal of Hydrobromic Acid and Tapentadol]", "values": [{"measurement": "TGA no weight loss up to", "setting": "[1]", "result": "to 195 °C"}]}, {"compound": "CC[C@@H](c1cccc(O)c1)[C@@H](C)CN(C)C.O=C(O)c1cccnc1", "note": "[Example G-1, Salt or Cocrystal of Nicotinic Acid and Tapentadol]", "values": [{"measurement": "TGA weight loss", "setting": "[1]; 28° C.-171° C.", "result": "−6.4", "unit": "%"}]}, {"compound": "CC[C@@H](c1cccc(O)c1)[C@@H](C)CN(C)C.O=C(O)c1cccnc1", "note": "[Example G-2, Salt or Cocrystal of Nicotinic Acid and Tapentadol]", "values": [{"measurement": "TGA no weight loss up to", "setting": "[1]", "result": "to 135 °C"}, {"measurement": "TGA no weight loss up to", "setting": "[1]; listed as G-3", "result": "to 150 °C"}]}, {"compound": "CC[C@@H](c1cccc(O)c1)[C@@H](C)CN(C)C.CC[C@@H](c1cccc(O)c1)[C@@H](C)CN(C)C.O=C(O)/C=C/C(=O)O", "note": "[Example I-1, Hemi Salt or Hemi Cocrystal of Fumaric Acid and Tapentadol]", "values": [{"measurement": "TGA no weight loss up to", "setting": "[1]", "result": "to 131 °C"}, {"measurement": "TGA no weight loss up to", "setting": "[1]; listed as I-2", "result": "to 130 °C"}, {"measurement": "TGA no weight loss up to", "setting": "[1]; listed as I-3", "result": "to 130 °C"}]}, {"compound": "CCC(c1cccc(O)c1)C(C)CN(C)C.O=C1NS(=O)(=O)c2ccccc21", "note": "(centres unmarked) [Example J-1, Salt or Cocrystal of Saccharin and Tapentadol]", "values": [{"measurement": "TGA no weight loss up to", "setting": "[1]", "result": "to 105 °C"}]}, {"compound": "CC[C@@H](c1cccc(O)c1)[C@@H](C)CN(C)C.O=C(O)c1cccnc1", "note": "[Example b2-1b, Salt or Cocrystal of Tapentadol and Nicotinic Acid]", "values": [{"measurement": "weight loss (TGA)", "setting": "[1]; range: 27 to 171° C.", "result": "−5.9", "unit": "%"}]}, {"compound": "CC[C@@H](c1cccc(O)c1)[C@@H](C)CN(C)C.O=C(O)c1cccnc1", "note": "[Example b2-1c, Salt or Cocrystal of Tapentadol and Nicotinic Acid]", "values": [{"measurement": "TG weight change", "setting": "[1]; 29.76-135.97° C.", "result": "−0.19", "unit": "%"}, {"measurement": "weight loss (TGA)", "setting": "[1]; range: 25 to 148° C.", "result": "< 0.3", "unit": "%"}]}, {"compound": "CC[C@@H](c1cccc(O)c1)[C@@H](C)CN(C)C", "note": "[hydrogen chloride salt of 3-(3-dimethylamino-1-ethyl-2-methyl-propyl)-phenol]", "values": [{"measurement": "solubility in water and aqueous media", "setting": "[2]", "result": "high solubility"}]}, {"compound": "CC[C@@H](c1cccc(O)c1)[C@@H](C)CN(C)C", "note": "[tapentadol, (1R,2R)-3-(3-dimethylamino-1-ethyl-2-methyl-propyl)-phenol]", "values": [{"measurement": "affinity to the recombinantly produced μ-opioid receptor, times less than that of morphine", "setting": "[3]", "result": 18, "unit": "times"}, {"measurement": "pain-alleviating action relative to morphine", "setting": "[4]", "result": "two to three times less"}]}, {"compound": "Salt or Cocrystal of Embonic Acid and Tapentadol [Example D-1]", "values": [{"measurement": "TGA weight loss", "setting": "[1]; 90° C.-157° C.", "result": "−7.1", "unit": "%"}]}, {"compound": "Salt or Cocrystal of Embonic Acid and Tapentadol [Example D-2]", "values": [{"measurement": "TGA no weight loss up to", "setting": "[1]", "result": "to 170 °C"}, {"measurement": "TGA no weight loss up to", "setting": "[1]; listed as D-3", "result": "to 160 °C"}]}, {"compound": "Salt or Cocrystal of Nitric Acid and Tapentadol [Example H-1]", "values": [{"measurement": "TGA no weight loss up to", "setting": "[1]", "result": "to 170 °C"}]}, {"compound": "Salt or Cocrystal of Tapentadol and Embonic Acid [b1-4-3]", "values": [{"measurement": "weight loss (TGA)", "setting": "[1]; range 31 to 171° C.", "result": "< 0.1", "unit": "%"}]}, {"compound": "Salt or Cocrystal of Tapentadol and Embonic Acid [b1-4-4]", "values": [{"measurement": "weight loss (TGA)", "setting": "[1]; range 53 to 167° C.", "result": "−5.7", "unit": "%"}]}]}
